Test results taken from patent US11932636B2, “RAD51 inhibitors” (Cyteir Therapeutics, Inc., priority 2019, dated 2024).
pEC50: −log10 of the molar value. Like-named read-outs stand apart in the source and are kept apart here.

System: Daudi cells (AID positive)
Assay: Compound primary screening: cell death in AID positive Daudi cells (Cell-Titer Glo, Day 7)
Assay type: cell-based
Details: Homo sapiens, 168 h, read-out: Cellular activity in AID + (Daudi)
Summary of the method: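 AID-positive Daudi cells were seeded at 1250 cells per well and treated with serially diluted compound delivered from a DMSO/media master plate. Cultures were incubated at 37 °C, and cell death was measured on Day 7 with Cell-Titer Glo luminescence.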

[1] = Daudi cells, AID positive, cell death on Day 7, Cell-Titer Glo

SMILES: CCNS(=O)(=O)c1cc(CC(=O)N2CCCCC2)ccc1-c1cnc([C@H]2CC[C@H](NC(=O)OC(C)C)CC2)s1 [Compound 83, isopropyl trans-N-[4-[5-[4-[2-oxo-2-(piperidin-1-yl)ethyl]-2-(ethyl-sulfamoyl)phenyl]thiazol-2-yl]cyclohexyl]carbamate]
- pEC50 [1]: 6.00 to 7.00

SMILES: CCNS(=O)(=O)c1cc(CC(=O)N2CCOCC2)ccc1-c1cnc([C@H]2CC[C@H](NC(=O)OC(C)C)CC2)s1 [Compound 84, isopropyl trans-N-[4-[5-[4-[2-oxo-2-(morpholin-4-yl)ethyl]-2-(ethyl-sulfamoyl)phenyl]thiazol-2-yl]cyclohexyl]carbamate]
- pEC50 [1]: 6.00 to 7.00

SMILES: CCNS(=O)(=O)c1cc(CC(=O)N2CC(O)C2)ccc1-c1cnc([C@H]2CC[C@H](NC(=O)OC(C)C)CC2)s1 [Compound 85, isopropyl trans-N-[4-[5-[4-[2-oxo-2-(3-hydroxyazetidin-1-yl)ethyl]-2-(ethyl-sulfamoyl)phenyl]thiazol-2-yl]cyclohexyl]carbamate]
- pEC50 [1]: 6.00 to 7.00

SMILES: CCNS(=O)(=O)c1cc(CC(N)=O)ccc1-c1cnc([C@H]2CC[C@H](NC(=O)OC(C)C)CC2)s1 [Compound 86, isopropyl trans-N-[4-[5-[4-[2-amino-2-oxo-ethyl]-2-(ethyl-sulfamoyl)phenyl]thiazol-2-yl]cyclohexyl]carbamate]
- pEC50 [1]: 6.00 to 7.00

SMILES: CCNS(=O)(=O)c1cc(CC(=O)N2CCC2)ccc1-c1cnc([C@H]2CC[C@H](NC(=O)OC(C)C)CC2)s1 [Compound 87, isopropyl trans-N-[4-[5-[4-[2-oxo-2-(azetidin-1-yl)ethyl]-2-(ethyl-sulfamoyl)phenyl]thiazol-2-yl]cyclohexyl]carbamate]
- pEC50 [1]: 6.00 to 7.00

SMILES: CC(C)OC(=O)N[C@H]1CC[C@H](c2ncc(-c3ccc(N)cc3S(=O)(=O)N3CCCC3)s2)CC1 [Compound 88, isopropyl trans-N-[4-[5-(4-amino-2-pyrrolidin-1-ylsulfonyl-phenyl)thiazol-2-yl]cyclohexyl]carbamate]
- pEC50 [1]: 6.00 to 7.00

SMILES: CNc1ccc(-c2cnc([C@H]3CC[C@H](NC(=O)OC(C)C)CC3)s2)c(S(=O)(=O)N2CCCC2)c1 [Compound 89, isopropyl trans-N-[4-[5-(4-(methylamino)-2-pyrrolidin-1-ylsulfonyl-phenyl)thiazol-2-yl]cyclohexyl]carbamate]
- pEC50 [1]: 6.00 to 7.00

SMILES: CC(C)OC(=O)N[C@H]1CC[C@H](c2ncc(-c3ccc(Nc4ncc[nH]4)cc3S(N)(=O)=O)s2)CC1 [Compound 90, isopropyl trans-N-[4-[5-[4-(1H-imidazol-2-ylamino)-2-sulfamoyl-phenyl]thiazol-2-yl]cyclohexyl]carbamate]
- pEC50 [1]: 6.00 to 7.00

SMILES: CC(C)OC(=O)N[C@H]1CC[C@H](c2ncc(-c3ccc(Nc4ncc[nH]4)cc3S(=O)(=O)N(C)C)s2)CC1 [Compound 91, isopropyl trans-N-[4-[5-[2-(dimethylsulfamoyl)-4-(1H-imidazol-2-ylamino)phenyl]thiazol-2-yl]cyclohexyl]carbamate]
- pEC50 [1]: 6.00 to 7.00

SMILES: CC(C)OC(=O)N[C@H]1CC[C@H](c2ncc(-c3ccc(Nc4ncc[nH]4)cc3S(=O)(=O)N3CCCC3)s2)CC1 [Compound 92, isopropyl trans-N-[4-[5-[4-(1H-imidazol-2-ylamino)-2-pyrrolidin-1-ylsulfonyl-phenyl]thiazol-2-yl]cyclohexyl]carbamate]
- pEC50 [1]: 6.00 to 7.00

SMILES: CNS(=O)(=O)c1ccccc1-c1cnc([C@H]2CC[C@H](NC(=O)OC(C)C)CC2)s1 [Compound 93, isopropyl trans-N-[4-[5-(2-methylsulfamoylphenyl)thiazol-2-yl]cyclohexyl]carbamate]
- pEC50 [1]: 5.00 to 6.00

SMILES: CCNS(=O)(=O)c1cc(C(=O)Nc2ncc[nH]2)ccc1-c1cnc([C@H]2CC[C@H](NC(=O)OC(C)C)CC2)s1 [Compound 94, isopropyl trans-N-[4-[5-[2-(ethylsulfamoyl)-4-(1H-imidazol-2-ylcarbamoyl)phenyl]thiazol-2-yl]cyclohexyl]carbamate]
- pEC50 [1]: > 7.00

SMILES: CCNS(=O)(=O)c1cc(C(=O)N2CCCC2)ccc1-c1cnc([C@H]2CC[C@H](NC(=O)OC(C)C)CC2)s1 [Compound 95, isopropyl trans-N-[4-[5-[4-pyrrolidin-1-ylcarbonyl-2-(ethylsulfamoyl)phenyl]thiazol-2-yl]cyclohexyl]carbamate]
- pEC50 [1]: 6.00 to 7.00

SMILES: CCNS(=O)(=O)c1cc(CC(=O)NC(C)C)ccc1-c1cnc(N2CCN(C(=O)OC3COC3)CC2)s1 [Compound 96, oxetan-3-yl 4-(5-(2-(N-ethylsulfamoyl)-4-(2-(isopropylamino)-2-oxoethyl)phenyl)thiazol-2-yl)piperazine-1-carboxylate]
- pEC50 [1]: < 5.00

SMILES: CC(C)OC(=O)N[C@H]1CC[C@H](c2ncc(-c3ccc(CC(=O)NCc4ccccc4)cc3S(=O)(=O)NC(C)(C)C)s2)CC1 [Compound 97, isopropyl trans-N-[4-[5-[4-[2-(benzylamino)-2-oxo-ethyl]-2-(tert-butylsulfamoyl)phenyl]thiazol-2-yl]cyclohexyl]carbamate]
- pEC50 [1]: > 7.00

SMILES: CC(C)(C)NS(=O)(=O)c1cc(CC(=O)NCc2ccccc2)ccc1-c1cnc([C@H]2CC[C@H](NC(=O)OC3COC3)CC2)s1 [Compound 98, oxetan-3-yl trans-N-[4-[5-[4-[2-(benzylamino)-2-oxo-ethyl]-2-(tert-butylsulfamoyl)phenyl]thiazol-2-yl]cyclohexyl]carbamate]
- pEC50 [1]: > 7.00

SMILES: CCNS(=O)(=O)c1cc(OCCC(C)C)ccc1-c1cnc([C@H]2CC[C@H](NC(=O)OC(C)C)CC2)s1 [Compound 99, isopropyl trans-N-[4-[5-[2-(ethylsulfamoyl)-4-isopentyloxy-phenyl]thiazol-2-yl]cyclohexyl]carbamate]
- pEC50 [1]: 6.00 to 7.00

SMILES: CCNS(=O)(=O)c1cc(OCCC(C)C)ccc1-c1cnc([C@H]2CC[C@H](NC(=O)OC3COC3)CC2)s1 [Compound 100, oxetan-3-yl trans-N-[4-[5-[2-(ethylsulfamoyl)-4-isopentyloxy-phenyl]thiazol-2-yl]cyclohexyl]carbamate]
- pEC50 [1]: 6.00 to 7.00

SMILES: CC(C)CCOc1ccc(-c2cnc([C@H]3CC[C@H](NC(=O)OC(C)C)CC3)s2)c(S(=O)(=O)NC(C)(C)C)c1 [Compound 101, isopropyl trans-N-[4-[5-[2-(tert-butylsulfamoyl)-4-isopentyloxy-phenyl]thiazol-2-yl]cyclohexyl]carbamate]
- pEC50 [1]: 5.00 to 6.00

SMILES: CC(C)CCOc1ccc(-c2cnc([C@H]3CC[C@H](NC(=O)OC4COC4)CC3)s2)c(S(=O)(=O)NC(C)(C)C)c1 [Compound 102, oxetan-3-yl trans-N-[4-[5-[2-(tert-butylsulfamoyl)-4-isopentyloxy-phenyl]thiazol-2-yl]cyclohexyl]carbamate]
- pEC50 [1]: 5.00 to 6.00

SMILES: CCNS(=O)(=O)c1cc(Cc2ncco2)ccc1-c1cnc([C@H]2CC[C@H](NC(=O)OC(C)C)CC2)s1 [Compound 103, isopropyl trans-N-[4-[5-[2-(ethylsulfamoyl)-4-(oxazol-2-ylmethyl)phenyl]thiazol-2-yl]cyclohexyl]carbamate]
- pEC50 (Daudi): 6.00 to 7.00

SMILES: CCNS(=O)(=O)c1cc(-c2ncco2)ccc1-c1cnc([C@H]2CC[C@H](NC(=O)OC(C)C)CC2)s1 [Compound 104, isopropyl trans-N-[4-[5-[2-(ethylsulfamoyl)-4-oxazol-2-yl-phenyl]thiazol-2-yl]cyclohexyl]carbamate]
- pEC50 (Daudi): 6.00 to 7.00

SMILES: CCNS(=O)(=O)c1cc(Nc2nccn2C)ccc1-c1cnc([C@H]2CC[C@H](NC(=O)OC(C)C)CC2)s1 [Compound 105, isopropyl trans-N-[4-[5-[2-(ethylsulfamoyl)-4-[(1-methylimidazol-2-yl)amino]phenyl]thiazol-2-yl]cyclohexyl]carbamate]
- pEC50 [1]: > 7.00

SMILES: CCNS(=O)(=O)c1cc(Nc2nccn2C)ccc1-c1cnc([C@H]2CC[C@@H](NC(=O)OC(C)C)CC2)s1 [Compound 106, isopropyl cis-N-[4-[5-[2-(ethylsulfamoyl)-4-[(1-methylimidazol-2-yl)amino]phenyl]thiazol-2-yl]cyclohexyl]carbamate]
- pEC50 [1]: > 7.00

SMILES: CCNS(=O)(=O)c1cc(Nc2nccn2CC(C)C)ccc1-c1cnc([C@H]2CC[C@H](NC(=O)OC(C)C)CC2)s1 [Compound 107, isopropyl trans-N-[4-[5-[2-(ethylsulfamoyl)-4-[(1-isobutylimidazol-2-yl)amino]phenyl]thiazol-2-yl]cyclohexyl]carbamate]
- pEC50 [1]: > 7.00

SMILES: CCNS(=O)(=O)c1cc(N)ccc1-c1cnc([C@H]2CC[C@H](NC(=O)OC3CC3)CC2)s1 [Compound 108, cyclopropyl trans-N-[4-[5-[4-amino-2-(ethylsulfamoyl)phenyl]thiazol-2-yl]cyclohexyl]carbamate]
- pEC50 [1]: > 7.00

SMILES: CCNS(=O)(=O)c1cc(Nc2ncc[nH]2)ccc1-c1cnc([C@H]2CC[C@H](NC(=O)OC3CC3)CC2)s1 [Compound 109, cyclopropyl trans-N-[4-[5-[2-(ethylsulfamoyl)-4-(1H-imidazol-2-ylamino)phenyl]thiazol-2-yl]cyclohexyl]carbamate]
- pEC50 (Daudi): 6.00 to 7.00

SMILES: CC(C)OC(=O)N[C@H]1CC[C@@H](c2ncc(-c3ccc(Nc4ncc[nH]4)cc3S(=O)(=O)NC(C)(C)C)s2)CC1 [Compound 110, isopropyl cis-N-[4-[5-[2-(tert-butylsulfamoyl)-4-(1H-imidazol-2-ylamino)phenyl]thiazol-2-yl]cyclohexyl]carbamate]
- pEC50 [1]: 6.00 to 7.00

SMILES: CCNS(=O)(=O)c1cc(Nc2cc(C(C)C)ccn2)ccc1-c1cnc([C@H]2CC[C@H](NC(=O)OC(C)C)CC2)s1 [Compound 111, isopropyl trans-N-[4-[5-[2-(ethylsulfamoyl)-4-[(4-isopropyl-2-pyridyl)amino]phenyl]thiazol-2-yl]cyclohexyl]carbamate]
- pEC50 [1]: 6.00 to 7.00

SMILES: CCNS(=O)(=O)c1cc(Nc2cccc(C(C)C)n2)ccc1-c1cnc([C@H]2CC[C@H](NC(=O)OC(C)C)CC2)s1 [Compound 112, isopropyl trans-N-[4-[5-[2-(ethylsulfamoyl)-4-[(6-isopropyl-2-pyridyl)amino]phenyl]thiazol-2-yl]cyclohexyl]carbamate]
- pEC50 [1]: > 7.00
